Data as given in paper PMC10005301, “Prediction of the n-Octanol/Water Partition Coefficients of Basic Compounds Using Multi-Parameter QSRR Models Based on IS-RPLC Retention Behavior in a Wide pH Range” (Molecules, 2023).
Read-outs that look alike come from different tables or passages of the source.

Assays:
[1] = ref database module of ACD/Labs software; cited from earlier work
[2] = IS-RPLC retention on silica-based C18 column, logkw by linear solvent strength model; assay type: physicochemical
Procedure: (§1) The retention behavior of the 42 basic compounds (Table 1) were investigated at different ratios of methanol (φ = 0.7–0.1, the interval was 0.1 or 0.05 based on the retention of the investigated solutes). The logk values were plotted versus φ for each solute at pH 7.0, pH 8.0, pH 9.0, and pH 10.0. […] The logD values of the model compounds and verification compounds calculated using Equation (S3) based on the logP and pH values are also listed in Table 1.
The column temperature was set at 30 °C. Methanol and 20 mmol/L ammonium phosphate buffer (pH = 7.0, 8.0, 9.0, 10.0) was used as the mobile phase to perform isocratic elution. The injection volume was 10 µL and the detection wavelength for each eluted compound was set at its optimum absorption wavelength.
(§2) At each pH, the retention time (tR) of every analyte was determined for at least four different volume fractions (φ) of methanol. All the tR values of the solutes were obtained by averaging the results of at least three independent injections. The tR value was corrected using dual-point retention time correction (DP-RTC). For a detailed description of the process, refer to our previous work. For the different hydrophobicities of the studied compounds, benzene, toluene, and benzyl alcohol were used as anchor compounds in the DP-RTC method. The dead time t0 was determined using uracil. For each solute, the logarithm of k was plotted against φ, and logkw was obtained using the Equation (S1). The logD values of the model compounds were calculated using Equation (S3), and the logD–logkw models were established with Equation (S4). The statistical analysis for the regression model was accomplished using Origin 9.4. […]
(§3) Where, k is the capacity factor, φ is the volume fraction of organic modifier in the mobile phase, and S is the constant obtained by linear regression in the equations. […]
The Eqs. (S1) and (S2) are the basis for the determination of logP by revered- phase liquid chromatography (RPLC) method. For dissociative solutes, it has been confirmed by many studies that the logD calibrated from logP has a better linear correlation with logkw than logP. […]

[3] = Description: as §1, §2, §3
and logkw, which is usually called Collander equation [25 ]. lo g lo g wPm k n= + (S2)
Where, m and n are constants obtained by linear regression.
The Eqs. (S1) and (S2) are the basis for the determination of logP by revered- phase liquid chromatography (RPLC) method. For dissociative solutes, it has been confirmed by many studies that the logD calibrated from logP has a better linear correlation with logkw than logP.
For basic compounds, the logD value can be calibrated from Eq. (S3), and the Collander equation can be rewritten into Eq. (S4). log log( )D − −+ −+= + ++P […]
lo g ' lo g 'Dm k n= +w (S4)
Where, pKa1, pKa2 , … p Kan are the dissociation constants of basic compounds of corresponding acids in the mobile phase, pH is the pH value of mobile phase, m′ and n′ are fitting parameters. Han et al. pointed out that although mobile phase pH and pKa of solutes will change along with the varied organic modifier fraction, the difference between a couple of relevant pH and pKa is a constant. Therefore, the used pH and pKa in this paper were both the values obtained at 100% aqueous phase. […]

[4] = ref database module of ACD/Labs software, cited from earlier work
[5] = parameters: method as in UFZ-LSER database; conditions: hydrogen bonding parameter B; ref UFZ-LSER database; cited from earlier work
physchem = assay: physchem
Procedure: Multi-parameter QSRR models including logD, logkw, ne, A, and B were established using the multiple linear regression (MLR) method. In the process of linear fitting, ne, A, B, and their different combinations were introduced to optimize the models.
The logD values reported in the literature for these four compounds were calculated using Equation (S3) with corresponding pKa, logP, and pH values.
At each pH, the retention time (tR) of every analyte was determined for at least four different volume fractions (φ) of methanol. All the tR values of the solutes were obtained by averaging the results of at least three independent injections. The tR value was corrected using dual-point retention time correction (DP-RTC). For a detailed description of the process, refer to our previous work. For the different hydrophobicities of the studied compounds, benzene, toluene, and benzyl alcohol were used as anchor compounds in the DP-RTC method. The dead time t0 was determined using uracil. For each solute, the logarithm of k was plotted against φ, and logkw was obtained using the Equation (S1). The logD values of the model compounds were calculated using Equation (S3), and the logD–logkw models were established with Equation (S4). The statistical analysis for the regression model was accomplished using Origin 9.4.

[6] = pH 7.0, methanol/20 mmol/L ammonium phosphate buffer, Welch Xtimate C18, 30 °C, 100% aqueous extrapolation
[7] = pH 8.0, methanol/20 mmol/L ammonium phosphate buffer, Welch Xtimate C18, 30 °C, 100% aqueous extrapolation
[8] = pH 9.0, methanol/20 mmol/L ammonium phosphate buffer, Welch Xtimate C18, 30 °C, 100% aqueous extrapolation
[9] = pH 10.0, methanol/20 mmol/L ammonium phosphate buffer, Welch Xtimate C18, 30 °C, 100% aqueous extrapolation
[10] = pH 10.0, calculated with literature logP, pKa and pH, Equation (S3)
[11] = pH 7.0, calculated with literature logP, pKa and pH, Equation (S3)
[12] = pH 8.0, calculated with literature logP, pKa and pH, Equation (S3)
[13] = pH 9.0, calculated with literature logP, pKa and pH, Equation (S3)

Row | SMILES | pKa1 [1] | logkw-pH 7.0 ([2]; pH 7) | logkw-pH 8.0 ([2]; pH 8) | logkw-pH 9.0 ([2]; pH 9) | logkw-pH 10.0 ([2]; pH 10) | logDpH 7.0 ([3]; pH 7) | logDpH 8.0 ([3]; pH 8) | logDpH 9.0 ([3]; pH 9) | logDpH 10.0 ([3]; pH 10) | logP ([4]; n-octanol/water) | B [5] | logkw-pH 7.0 [2, 6] | logkw-pH 8.0 [2, 7] | logkw-pH 9.0 [2, 8] | logkw-pH 10.0 [2, 9] | other results
1 | Nc1ccc(N)cc1 [1,4-Benzenediamine] | 6.31 | −0.39 | −0.35 | −0.17 | −0.04 | −0.38 | −0.31 | −0.30 | −0.30 | −0.30 | 1.30 |  |  |  |  | pKa2 [1]: 2.97
2 | Cc1cc(C)nc(C)c1 [2,4,6-Trimethylpyridine] |  |  |  |  |  | 1.44 | 1.91 | 2.00 |  | 2.01 | 0.63 | 2.06 | 2.23 | 2.30 | 2.34 | logDpH 10.0 [3, 10]: 2.01
3 | Cc1ccc(N)c(C)c1 [2,4-Dimethylaniline] | 4.70 | 1.92 | 1.98 | 2.00 | 2.04 | 1.68 | 1.68 | 1.68 | 1.68 | 1.68 | 0.95 |  |  |  |  | 
4 | Cc1ccnc(C)c1 [2,4-Dimethylpyridine] | 6.58 |  |  |  |  |  |  |  |  | 1.65 | 0.63 | 1.76 | 1.85 | 1.88 | 1.96 | logDpH 7.0 [3, 11]: 1.51; logDpH 8.0 [3, 12]: 1.63; logDpH 9.0 [3, 13]: 1.65; logDpH 10.0 [3, 10]: 1.65
5 | Cc1cccc(C)n1 [2,6-Dimethylpyridine] | 6.65 |  |  |  |  | 1.52 | 1.66 | 1.68 | 1.68 | 1.68 | 0.61 | 1.68 | 1.76 | 1.78 | 1.81 | 
6 | Cc1ccnc(N)c1 [2-Amino-4-methylpyridine] | 7.38 |  |  |  |  |  |  |  |  | 0.89 | 0.95 | 1.00 | 1.16 | 1.28 | 1.32 | logDpH 7.0 [3, 11]: 0.36; logDpH 8.0 [3, 12]: 0.80; logDpH 9.0 [3, 13]: 0.88; logDpH 10.0 [3, 10]: 0.89
7 | CCc1ccccc1N [2-Ethylaniline] |  |  |  |  |  | 1.63 | 1.67 | 1.67 | 1.67 |  | 0.96 | 1.87 | 1.94 | 1.95 | 1.95 | chromatographic logD (physchem; pH 7): 1.79; chromatographic logD (physchem; pH 8): 1.77; chromatographic logD (physchem; pH 9): 1.75; chromatographic logD (physchem; pH 10): 1.71
8 | CCc1ccccn1 [2-Ethylpyridine] |  |  |  |  |  |  |  |  |  | 1.67 | 0.61 | 1.74 | 1.79 | 1.80 | 1.90 | logDpH 7.0 [3, 11]: 2.05; logDpH 8.0 [3, 12]: 2.05; logDpH 9.0 [3, 13]: 2.05; logDpH 10.0 [3, 10]: 2.05; logP ([4]; Table 4, verification compounds): 1.67; chromatographic logD (physchem; IS-RPLC retention (logkw), pH 7): 1.62; chromatographic logD (physchem; IS-RPLC retention (logkw), pH 8): 1.62; chromatographic logD (physchem; IS-RPLC retention (logkw), pH 9): 1.6; chromatographic logD (physchem; IS-RPLC retention (logkw), pH 10): 1.65
9 | COc1ccccc1N [2-Methoxyaniline] | 4.53 | 1.38 | 1.41 | 1.42 | 1.49 | 0.95 | 0.95 | 0.95 | 0.95 | 0.95 | 0.99 |  |  |  |  | 
10 | Cc1ccccc1N [2-Methylaniline] |  | 1.47 | 1.44 | 1.45 | 1.49 | 1.40 | 1.40 | 1.40 | 1.40 | 1.40 | 0.97 |  |  |  |  | 
11 | CCOc1ccc(N)cc1 [4-Ethoxyaniline] |  | 1.45 | 1.49 | 1.50 | 1.60 | 1.23 | 1.24 | 1.24 | 1.24 | 1.24 | 0.95 |  |  |  |  | 
12 | CC(C)c1ccc(N)cc1 [4-Isopropylaniline] | 4.85 |  |  |  |  |  |  |  |  | 2.23 | 0.92 | 2.42 | 2.57 | 2.59 | 2.65 | logDpH 7.0 [3, 11]: 2.23; logDpH 8.0 [3, 12]: 2.23; logDpH 9.0 [3, 13]: 2.23; logDpH 10.0 [3, 10]: 2.23
13 | COc1ccc(N)cc1 [4-Methoxyaniline] | 5.36 | 1.05 | 0.99 | 1.07 | 1.11 | 0.79 |  | 0.80 | 0.80 | 0.80 | 1.05 |  |  |  |  | logDpH 8.0 [3, 12]: 0.80
14 | Cc1ccc(N)cc1 [4-Methylaniline] | 5.08 | 1.50 | 1.53 | 1.54 | 1.58 | 1.40 | 1.41 | 1.41 | 1.41 | 1.41 | 0.94 |  |  |  |  | 
15 | Cc1ccncc1 [4-Methylpyridine] | 5.99 |  |  |  |  | 1.29 | 1.33 | 1.33 | 1.33 | 1.33 | 0.63 | 1.40 | 1.41 | 1.44 | 1.46 | 
16 | NCc1ccccc1 [Benzylamine] | 9.35 |  |  |  |  |  |  |  |  |  |  | 0.36 | 0.49 | 1.05 | 1.42 | 
17 | CN(C)c1ccccc1 [N, N-Dimethylaniline] | 5.07 | 2.18 | 2.37 | 2.39 | 2.44 |  |  |  |  |  | 0.96 |  |  |  |  | 
